Measurements: patent publication US20230322846A9, “NEUROACTIVE STEROIDS AND THEIR METHODS OF USE” (SAGE THERAPEUTICS, INC., priority 2018, published 2023)

target: [35S]-TBPS binding, rat brain cortical membranes; experiment: Steroid inhibition of [35S]-TBPS binding; settings: 3 nM [35S]-TBPS, in the presence of 5 mM GABA
Protocol: [^35S]-t-Butylbicyclophosphorothionate (TBPS) binding assays using rat brain cortical membranes in the presence of 5 mM GABA has been described (Gee et al, J. Pharmacol. Exp. Ther. 1987, 241, 346-353; Hawkinson et al, Mol. Pharmacol. 1994, 46, 977-985; Lewin, A. H et al., Mol. Pharmacol. 1989, 35, 189-194).
Briefly, cortices are rapidly removed following decapitation of carbon dioxide-anesthetized Sprague-Dawley rats (200-250 g). The cortices are homogenized in 10 volumes of ice-cold 0.32 M sucrose using a glass/teflon homogenizer and centrifuged at 1500×g for 10 min at 4° C. The resultant supernatants are centrifuged at 10,000×g for 20 min at 4° C. to obtain the P2 pellets. The P2 pellets are resuspended in 200 mM NaCl/50 mM Na—K phosphate pH 7.4 buffer and centrifuged at 10,000×g for 10 min at 4° C. This washing procedure is repeated twice and the pellets are resuspended in 10 volumes of buffer. Aliquots ([…]) of the membrane suspensions are incubated with 3 nM [^35S]-TBPS and […] aliquots of test drug dissolved in dimethyl sulfoxide (DMSO) (final 0.5%) in the presence of 5 mM GABA. The incubation is brought to a final volume of 1.0 mL with buffer. Nonspecific binding is determined in the presence of […] and ranged from 15 to 25%. Following a 90 min incubation at room temp, the assays are terminated by filtration through glass fiber filters (Schleicher and Schuell No. 32) using a cell harvester (Brandel) and rinsed three times with ice-cold buffer. Filter bound radioactivity is measured by liquid scintillation spectrometry. Non-linear curve fitting of the overall data for each drug averaged for each concentration is done using Prism (GraphPad). […] The concentration of test compound producing 50% inhibition (IC50) of specific binding and the maximal extent of inhibition (Imax) are determined for the individual experiments with the same model used for the overall data and then the means±SEM.s of the individual experiments are calculated.
Various compounds are or can be screened to determine their potential as modulators of [^35S]-TBPS binding in vitro. These assays are or can be performed in accordance with the above

First: C[C@@H](NS(=O)(=O)c1ccccc1)[C@H]1CC[C@H]2[C@@H]3CC[C@@H]4C[C@](C)(O)CC[C@@H]4[C@H]3CC[C@]12C [Example 18, N—((R)-1-((3R,5R,8R,9R,10S,13S,14S,17S)-3-hydroxy-3,13-dimethylhexadecahydro-1H-cyclopenta[a]phenanthren-17-yl)ethyl)benzenesulfonamide]
Second: C[C@@H]([C@H]1CC[C@H]2[C@@H]3CC[C@@H]4C[C@](C)(O)CC[C@@H]4[C@H]3CC[C@]12C)N(C)S(=O)(=O)c1ccccc1 [Example 21, N—((S)-1-((3R,5R,8R,9R,10S,13S,14S,17S)-3-hydroxy-3,13-dimethylhexadecahydro-1H-cyclopenta[a]phenanthren-17-yl)ethyl)-N-methylbenzenesulfonamide]
The IC50 of the first is lower: < 0.1 µM for the first, 1 to 10 µM for the second.

First: C[C@@H]([C@H]1CC[C@H]2[C@@H]3CC[C@@H]4C[C@](C)(O)CC[C@@H]4[C@H]3CC[C@]12C)N(C)C(=O)c1ccccc1 [Example 19, N—((S)-1-((3R,5R,8R,9R,10S,13S,14S,17S)-3-hydroxy-3,13-dimethylhexadecahydro-1H-cyclopenta[a]phenanthren-17-yl)ethyl)-N-methylbenzamide]
Second: C[C@H]([C@H]1CC[C@H]2[C@@H]3CC[C@@H]4C[C@](C)(O)CC[C@@H]4[C@H]3CC[C@]12C)N(C)C(=O)c1ccccc1 [Example 20, N-((1R)-1-((3R,5R,9R,10S,13S,14S,17S)-3-hydroxy-3,13-dimethylhexadecahydro-1H-cyclopenta[a]phenanthren-17-yl)ethyl)-N-methylbenzamide]
The IC50 of the first is higher: 1 to 10 µM for the first, 0.1 to 1 µM for the second. The second is the more potent here.

`C[C@H]([C@H]1CC[C@H]2[C@@H]3CC[C@@H]4C[C@](C)(O)CC[C@@H]4[C@H]3CC[C@]12C)N(C)S(=O)(=O)c1ccccc1` [Example 22, N—((R)-1-((3R,5R,8R,9R,10S,13S,14S,17S)-3-hydroxy-3,13-dimethylhexadecahydro-1H-cyclopenta[a]phenanthren-17-yl)ethyl)-N-methylbenzenesulfonamide] and `C[C@@H](Nc1ccccc1)[C@H]1CC[C@H]2[C@@H]3CC[C@@H]4C[C@](C)(O)CC[C@@H]4[C@H]3CC[C@]12C` [Example 25, (3R,5R,8R,9R,10S,13S,14S,17S)-3,13-dimethyl-17-((R)-1-(phenylamino)ethyl)hexadecahydro-1H-cyclopenta[a]phenanthren-3-ol] cannot be ordered by IC50: < 0.1 µM for the first, < 0.1 µM for the second.

First: C[C@H](NC(=O)c1ccccc1)[C@H]1CC[C@H]2[C@@H]3CC[C@@H]4C[C@](C)(O)CC[C@@H]4[C@H]3CC[C@]12C [Example 23, N—((S)-1-((3R,5R,8R,9R,10S,13S,14S,17S)-3-hydroxy-3,13-dimethylhexadecahydro-1H-cyclopenta[a]phenanthren-17-yl)ethyl)benzamide]
Second: C[C@@H](NC(=O)c1ccccc1)[C@H]1CC[C@H]2[C@@H]3CC[C@@H]4C[C@](C)(O)CC[C@@H]4[C@H]3CC[C@]12C [Example 24, N—((R)-1-((3R,5R,8R,9R,10S,13S,14S,17S)-3-hydroxy-3,13-dimethylhexadecahydro-1H-cyclopenta[a]phenanthren-17-yl)ethyl)benzamide]
The IC50 of the first is higher: 1 to 10 µM for the first, < 0.1 µM for the second.

First: C[C@H](Nc1ccccc1)[C@H]1CC[C@H]2[C@@H]3CC[C@@H]4C[C@](C)(O)CC[C@@H]4[C@H]3CC[C@]12C [Example 26, (3R,5R,8R,9R,10S,13S,14S,17S)-3,13-dimethyl-17-((S)-1-(phenylamino)ethyl)hexadecahydro-1H-cyclopenta[a]phenanthren-3-ol]
Second: C[C@@H](NC(=O)c1cccnc1)[C@H]1CC[C@H]2[C@@H]3CC[C@@H]4C[C@](C)(O)CC[C@@H]4[C@H]3CC[C@]12C [Example 29, N—((R)-1-((3R,5R,8R,9R,10S,13S,14S,17S)-3-hydroxy-3,13-dimethylhexadecahydro-1H-cyclopenta[a]phenanthren-17-yl)ethyl)nicotinamide]
The IC50 of the first is higher: 1 to 10 µM for the first, 0.1 to 1 µM for the second.
